This experiment has as its target T1, platelet P2Y1 receptor (Homo sapiens, UniProt P47900).
T1 construct: expressed in transfected cells
The experiment can be described thus: P2Y1 receptor binding assay ([β-33P]-2-thiomethyl ADP). The conditions noted are these: binding of 0.3 nM [β-33P]-2-thiomethyl ADP, hP2Y1 expressing 132N1 cell membrane, 25° C., 60 minutes. The method, then: Conducting P2Y, Receptor Binding Assay
[β−^33P]-2-thiomethyl ADP (2100 Ci/mmol) was purchased from PerkinElmer, Protease Inhibitors Complete, EDTA-free, was purchased from Roche, and ADP (Adenosine diphosphate), MRS2179, and 2-thiomethy ADP (2-Me-S-ADP) were purchased from Sigma Chemical Co.
Binding of 0.3 nM [β-^33P]-2-thiomethyl ADP to platelet P2Y1 receptor in 132N1 cell membrane was carried out in triplicate at 25° C. with 96 well plate (Corning, 3365). Nonspecific binding was defined as binding in the presence of 1 μM of 2-Me-S-ADP. One […] of dimethyl sulfoxide (DMSO) or 1 μL of DMSO (Sigma-Aldrich, 472301) containing a test compound diluted to final assay concentrations of 0.1 nM to 1 mM were placed into each well of a Corning 96-well plate. A volume of 60 μL of buffer: 50 mM Tris pH 7.5 (Sigma, T-2194), 1 mM EDTA (Gibco, 15575-038) and 100 mM NaCl (Gibco, 200740-011) containing 0.3 nM [β-^33P]-2-thiomethyl ADP 40 μL of hP2Y1 expressing 132N1 cell membrane prep was added to each well. After incubation on shaker for 60 minutes, The contents of the wells are filtered and washed 8 times with Tomtec Cell Harvester through UniFilter 96, GF/B plates (PerkinElmer, 6005177) Forty five microliters […] Scintillation cocktail (Ultima-Flo-M) was added into each well and plates counted on a Trilux Microbeta Counter.
• 1. Add 1 μL DMSO or compounds into the wells according to the protocol. • 2. Add 60 μL incubation buffer with [β-^33P]-2-thiomethyl ADP into each well. • 3. Add 40 μL hP2Y1 expressing 132N1 cell membrance prep. Incubate 60 minutes on top of the shaker (IKA Shutter MTS4). • 4. Filter and wash 8× with Tomtec Cell Harvester through UniFilter GF/B plates (PerkinElmer, 6005177). • 5. Add 45 μL scintillation cocktail into each well and plates counted on a Trilux Microbeta Counter.

T1 sequence (P47900 whole entry): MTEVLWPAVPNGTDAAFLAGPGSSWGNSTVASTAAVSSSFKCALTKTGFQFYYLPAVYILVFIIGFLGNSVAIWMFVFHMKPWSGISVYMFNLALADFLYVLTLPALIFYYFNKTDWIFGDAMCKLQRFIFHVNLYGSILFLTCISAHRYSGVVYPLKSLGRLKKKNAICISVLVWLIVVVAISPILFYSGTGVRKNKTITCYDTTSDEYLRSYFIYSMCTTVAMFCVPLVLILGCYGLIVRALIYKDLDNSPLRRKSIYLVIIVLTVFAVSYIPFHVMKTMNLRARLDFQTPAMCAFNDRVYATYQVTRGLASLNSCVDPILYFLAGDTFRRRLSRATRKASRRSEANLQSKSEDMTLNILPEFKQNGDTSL

By IC50 is commonly meant the concentration that gives 50% inhibition. As to `Cc1cc(Oc2ccccc2NC(=O)Nc2ccc(F)c(F)c2F)n(-c2ccccc2)n1` [Example 45], the IC50 worked out at 8850 nM.

As for `CCc1ccccc1-n1nc(C)cc1Oc1ccccc1NC(=O)Nc1ccccc1` [Example 95, 1-(2-(1-(2-ethylphenyl)-3-methyl-1H-pyrazol-5-yloxy)phenyl)-3-phenylurea], the concentration for half-maximal inhibition (IC50) amounted to 689 nM.

In the case of `Cc1cc(Oc2ccccc2NC(=O)Nc2ccc(C(C)(C)C)cc2)n(-c2ccccc2)n1` [Example 12], the IC50 is 207 nM.

On to `CCc1ccccc1-n1nc(C)cc1Oc1ccccc1NC(=O)Nc1ccc(-n2cncn2)cc1` [Example 112, 1-(4-(1H-1,2,4-triazol-1-yl)phenyl)-3-(2-(1-(2-ethylphenyl)-3-methyl-1H-pyrazol-5-yloxy)phenyl)urea], for which the IC50 is > 10000 nM.

In turn, `Cc1cc(C)cc(NC(=O)Nc2ccccc2Oc2cc(C)nn2-c2ccccc2)c1` [Example 43] gave an IC50 of 7560 nM.

With `CCCc1ccccc1-n1nc(C)cc1Oc1ccccc1NC(=O)Nc1ccc(OC(F)(F)F)cc1` [Example 119, 1-(2-(1-(2-propylphenyl)-3-methyl-1H-pyrazol-5-yloxy)phenyl)-3-(4-(trifluoromethoxy)phenyl)urea], the half-inhibitory concentration (IC50) was 88 nM. This IC50 is about 86-fold lower than that of the compound before.

`CCc1ccccc1-n1nc(C)cc1Oc1ccccc1NC(=O)Nc1ccc(C2CCCCC2)cc1` [Example 108, 1-(4-cyclohexylphenyl)-3-(2-(1-(2-ethylphenyl)-3-methyl-1H-pyrazol-5-yloxy)phenyl)urea] yielded an IC50 of 12 nM. Compared with the last compound, the IC50 is about 7.3-fold lower.

For `Cc1cc(Oc2ccccc2NC(=O)Nc2ccccc2Br)n(-c2ccccc2)n1` [Example 82], the IC50 was > 10000 nM.

The compound `CCc1ccccc1-n1nc(C)cc1Oc1ccccc1NC(=O)Nc1ccc(OC(C)C)cc1` [Example 109, 1-(2-(1-(2-ethylphenyl)-3-methyl-1H-pyrazol-5-yloxy)phenyl)-3-(4-isopropoxyphenyl)urea] registered a concentration for half-maximal inhibition (IC50) of 198 nM.

For the compound `Cc1cc(Oc2ccccc2NC(=O)Nc2ccc(CO)cc2)n(-c2ccccc2Cl)n1` [Example 87, 1-{2-[2-(2-Chloro-phenyl)-5-methyl-2H-pyrazol-3-yloxy]-phenyl}-3-(4-hydroxymethyl-phenyl)-urea], the IC50 is > 10000 nM.

Consider `Cc1ccc(C)c(NC(=O)Nc2ccccc2Oc2cc(C)nn2-c2ccccc2)c1` [Example 79], for which the IC50 was > 10000 nM.

`CSc1ccc(NC(=O)Nc2ccccc2Oc2cc(C)nn2-c2ccccc2)cc1` [Example 39] displayed an IC50 of 2220 nM.

`Cc1cc(Oc2ccccc2NC(=O)Nc2ccc(OC(F)(F)F)cc2)n(-c2cccc(F)c2)n1` [Example 17] showed an IC50 of 307 nM.

With `CCOC(=O)C(C)(C)c1ccc(NC(=O)Nc2ccccc2Oc2cc(C)nn2-c2ccccc2Cl)cc1` [Example 83, 2-[4-(3-{2-[2-(2-Chloro-phenyl)-5-methyl-2H-pyrazol-3-yloxy]-phenyl}-ureido)-phenyl]-2-methyl-propionic acid ethyl ester], the IC50 stood at 3390 nM.

Turning to `CCc1cc(Oc2ccccc2NC(=O)Nc2ccc(OC(F)(F)F)cc2)n(-c2ccccc2)n1` [Example 28, 1-[2-(5-Ethyl-2-phenyl-2H-pyrazol-3-yloxy)-phenyl]-3-(4-trifluoromethoxy-phenyl)-urea], the IC50 is > 10000 nM.

In the case of `Cc1cc(Oc2ccccc2NC(=O)Nc2ccc(OC(F)(F)F)cc2)n(-c2ccccc2C(C)C)n1` [Example 113, 1-(2-(1-(2-isopropylphenyl)-3-methyl-1H-pyrazol-5-yloxy)phenyl)-3-(4-(trifluoromethoxy)phenyl)urea], the IC50 was 57 nM.

On to `CC(=O)c1ccc(NC(=O)Nc2ccccc2Oc2cc(C)nn2-c2ccccc2Cl)cc1` [Example 118, 1-(4-acetylphenyl)-3-(2-(1-(2-chlorophenyl)-3-methyl-1H-pyrazol-5-yloxy)phenyl)urea], for which the IC50 is > 3330 nM.

For the compound `CCc1ccccc1-n1nc(C)cc1Oc1ccccc1NC(=O)Nc1ccc(-c2ccccc2)cc1` [Example 91, 1-(4-(phenyl)phenyl)-3-(2-(1-(2-ethylphenyl)-3-methyl-1H-pyrazol-5-yloxy)phenyl)urea], the IC50 is 87 nM. This lies in the double-digit nanomolar range.

In the case of `COc1cc(NC(=O)Nc2ccccc2Oc2cc(C)nn2-c2ccccc2)cc(OC)c1` [Example 80], the IC50 was > 10000 nM.

`CCc1ccccc1-n1nc(C)cc1Oc1ccccc1NC(=O)Nc1ccc(Oc2ccccc2)cc1` [Example 92, 1-(2-(1-(2-ethylphenyl)-3-methyl-1H-pyrazol-5-yloxy)phenyl)-3-(4-phenoxyphenyl)urea] displayed an IC50 of 182 nM.

As to `Cc1cccc(-n2nc(C)cc2Oc2ccccc2NC(=O)Nc2ccc(OC(F)(F)F)cc2)c1` [Example 5], the IC50 came out at 459 nM.

In turn, `Cc1cc(Oc2ncccc2NC(=O)Nc2ccc(OC(F)(F)F)cc2)n(-c2ccccc2Cl)n1` [Example 22, 1-{2-[2-(2-Chloro-phenyl)-5-methyl-2H-pyrazol-3-yloxy]-pyridin-3-yl}-3-(4-trifluoromethoxy-phenyl)-urea] gave an IC50 of 139 nM.

Compound `COc1ccccc1-n1nc(C)cc1Oc1ccccc1NC(=O)Nc1ccc(OC(F)(F)F)cc1` [Example 11] came in with a half-maximal inhibitory concentration (IC50) of 991 nM.

Turning to `Cc1cc(Oc2ccccc2NC(=O)Nc2ccc(OC(F)(F)F)cc2)n(-c2ccccc2F)n1` [Example 9], the IC50 was 253 nM.

With “1-Phenyl-5-{2-[3-(4-trifluoromethoxy-phenyl)-ureido]-phenoxy}-1H-pyrazole-3-carboxylic acid methyl ester [Example 26]”, the IC50 is > 10000 nM.

Take `Cc1cc(Oc2ccccc2NC(=O)Nc2ccc(C3CCN(C)CC3)cc2)n(-c2ccccc2Cl)n1` [Example 122, 1-(2-(1-(2-chlorophenyl)-3-methyl-1H-pyrazol-5-yloxy)phenyl)-3-(4-(1-methylpiperidin-4-yl)phenyl)urea]: the IC50 was > 10000 nM.

Consider `Cc1cc(Oc2ccccc2NC(=O)Nc2ccc(C3CCCC3)cc2)n(-c2ccccc2Cl)n1` [Example 124, 1-(2-(1-(2-chlorophenyl)-3-methyl-1H-pyrazol-5-yloxy)phenyl)-3-(4-cyclopentylphenyl)urea], for which the IC50 was 32 nM. This lies in the double-digit nanomolar range.

In turn, `Cc1cc(Oc2ccccc2NC(=O)Nc2ccc(-c3ccccc3)cc2)n(-c2ccccc2Cl)n1` [Example 96, 1-(4-(phenyl)-phenyl)-3-(2-(1-(2-chlorophenyl)-3-methyl-1H-pyrazol-5-yloxy)phenyl)urea] displayed a concentration for half-maximal inhibition (IC50) of 176 nM.

Compound `Cc1cc(Oc2ccccc2NC(=O)Nc2cccc(F)c2)n(-c2ccccc2)n1` [Example 38] had an IC50 of 1910 nM.

In turn, `Cc1cc(Oc2ccccc2NC(=O)Nc2ccc(OC(F)(F)F)cc2)n(-c2cc(Cl)ccc2Cl)n1` [Example 98, 1-(2-(1-(2,5-dichlorophenyl)-3-methyl-1H-pyrazol-5-yloxy)phenyl)-3-(4-(trifluoromethoxy)phenyl)urea] came in with an IC50 of 68 nM.

Consider `Cc1cc(Oc2ccccc2NC(=O)Nc2c(C)cccc2C)n(-c2ccccc2)n1` [Example 58], for which the IC50 is > 10000 nM.

`Cc1cc(Oc2ccccc2NC(=O)Nc2ccc(OC(F)(F)F)cc2)n(-c2ccc(Cl)cc2Cl)n1` [Example 20] had an IC50 of 150 nM. This counts as sub-micromolar.

`COC(C)c1ccc(NC(=O)Nc2ccccc2Oc2cc(C)nn2-c2ccccc2Cl)cc1` (stereo not shown) [Example 116, 1-(2-(1-(2-chlorophenyl)-3-methyl-1H-pyrazol-5-yloxy)phenyl)-3-(4-(1-methoxyethyl)phenyl)urea] registered a 50% inhibitory concentration (IC50) of 1120 nM. This IC50 is about 7.5-fold higher than that of the compound before.

In the case of `COc1cc(NC(=O)Nc2ccccc2Oc2cc(C)nn2-c2ccccc2)cc(OC)c1OC` [Example 57], the IC50 is > 10000 nM.

`Cc1cc(Oc2ccccc2NC(=O)Nc2ccc(OC(F)(F)F)cc2)n(-c2ccc(Cl)cc2)n1` [Example 13] registered a half-maximal inhibitory concentration (IC50) of 246 nM. That is a sub-micromolar value.

`Cc1cc(Oc2ccccc2NC(=O)Nc2ccc(C(C)N(C)C)cc2)n(-c2ccccc2Cl)n1` (stereo not shown) [Example 117, 1-(2-(1-(2-chlorophenyl)-3-methyl-1H-pyrazol-5-yloxy)phenyl)-3-(4-(1-(dimethylamino)ethyl)phenyl)urea]: the IC50 is > 10000 nM.

For `CCc1ccccc1-n1nc(C)cc1Oc1ccccc1NC(=O)Nc1ccc(C#N)cc1` [Example 101, 1-(4-cyanophenyl)-3-(2-(1-(2-ethylphenyl)-3-methyl-1H-pyrazol-5-yloxy)phenyl)urea], the 50% inhibitory concentration (IC50) was 1020 nM.

As for `Cc1cc(Oc2ccccc2NC(=O)Nc2ccc(-n3ccnc3)cc2)n(-c2ccccc2Cl)n1` [Example 100, 1-(4-(1H-imidazol-1-yl)phenyl)-3-(2-(1-(2-chlorophenyl)-3-methyl-1H-pyrazol-5-yloxy)phenyl)urea], the IC50 was > 10000 nM.

As to `CCc1ccccc1-n1nc(C)cc1Oc1ccccc1NC(=O)Nc1ccc(C(C)C)cc1` [Example 104, 1-(2-(1-(2-ethylphenyl)-3-methyl-1H-pyrazol-5-yloxy)phenyl)-3-(4-isopropylphenyl)urea], the IC50 amounted to 22 nM.

Take `Cc1cc(Oc2ccccc2NC(=O)Nc2ccc(C(C)(C)C)cc2)n(-c2ccccc2Cl)n1` [Example 6]: the IC50 was found to be 95 nM.
